{
  "source": "patent US20050176650A1",
  "about": "“Stable parenteral formulation of levomepromazine and a method for stabilizing said formulation” (Xanodyne Pharmacal, Inc., priority 2004, published 2005)",
  "origin": "cited, not measured here",
  "key": {"[1]": {"settings": "rats; prior art description"}, "[2]": {"settings": "prior art description"}, "traumatic shock": {"tested_on": "traumatic shock", "settings": "rats; prior art description"}},
  "data": [
    {"smiles": "COc1ccc2c(c1)N(C[C@H](C)CN(C)C)c1ccccc1S2", "note": "[Levomepromazine, (−)-(2R)-3-(2-methoxy-10H-phenothiazin-10-yl)-N,N,2-trimethylpropan-1-amine]", "values": [
      {"measurement": "local anesthesia following parasciatic injections", "setting": "[1]", "result": "produce deep local anesthesia"},
      {"measurement": "hypothermic action, potency relative to chlorpromazine", "setting": "[2]", "result": "three times more potent than that of chlorpromazine"},
      {"measurement": "protection against traumatic shock", "setting": "traumatic shock", "result": "readily protect against traumatic shock"}
    ]}
  ]
}
